Reference: patent US11634424B2 (priority 2019, dated 2023)
Several values for one entry are separate records, joined by “and”; a condition that tells them apart may be missing. Equal values may be shown once. Read-outs that look alike come from different tables or passages of the source.

How the values were obtained:
Chk2 = Chk2 (Homo sapiens (Human), UniProt O96017); test: Chk2 kinase activity test, Eurofins KinaseProfiler, [γ-33P]-ATP peptide substrate phosphorylation; assay type: biochemical
Experimental: The compounds of the present disclosure used in the experiments were self-prepared, and their chemical names and structural formulas were shown in the preparation embodiments of each compound. […] The test was carried out on the KinaseProfiler™ protein kinase activity detection platform of Eurofins, and the experimental results were provided by the company. […] A mixture solution of Mg^2′ and ATP (adenosine triphosphate) was added to initiate the reaction and the reaction solution was incubated at room temperature for 40 min. 0.5% Phosphate buffer was added to terminate the reaction. […] The value was read with scintillation counting method after drying.

Chk1 = Chk1 (Homo sapiens (Human), UniProt O14757); test: biochemical; assay type: biochemical; conditions: read-out: Chk1 inhibition IC50
Experimental: The compounds of the present disclosure used in the experiments were self-prepared, and their chemical names and structural formulas were shown in the preparation embodiments of each compound. The determination mixture containing embodiment compounds of the present disclosure and Chk1 and Chk2 kinases were incubated in a microtiter plate, and CHK1 inhibitor activity of compounds were tested by monitoring the phosphorylation of Chk1 and Chk2 kinases on a synthetic peptide substrate with a specific amino acid sequence ([…], SEQ ID NO: 1). The test was carried out on the KinaseProfiler™ protein kinase activity detection platform of Eurofins, and the experimental results were provided by the company. The procedure was as follows: Chk1 and Chk2 kinases were diluted with 20 mM MOPS (morpholinpropane sulfonic acid), 1 mM EDTA (ethylenediaminetetraacetic acid), 0.04% Brij-35, 5% glycerol, 0.1% 2-mercaptoethanol, 1 mg/mL BSA (bovine serum albumin) and added to the reaction system, and the reaction system contained the embodiment compounds, 8 mM MOPS pH 7.0, 0.2 mM EDTA, […] polypeptide substrate ([…], SEQ ID NO: 1), 10 mM magnesium acetate and a certain concentration of [γ-33P]-ATP (the strength was about 500 cpm/pmol). A mixture solution of Mg^2′ and ATP (adenosine triphosphate) was added to initiate the reaction and the reaction solution was incubated at room temperature for 40 min. 0.5% Phosphate buffer was added to terminate the reaction. 10 μL of the reaction solution was filtered four times on a continuous filter P30, washed three times with […], and once with methanol, each wash for 4 min. The value was read with scintillation counting method after drying.

[1] = Pharmacokinetic evaluation of compounds in mice; assay type: in vivo; conditions: mouse, plasma, female C57BL/6 mice; for bioavailability: oral, gavage 10 mg/kg vs intravenous 1 mg/kg, read-out: F (bioavailability); for AUC(0-t): 0 to 24 h; for Cmax: route not given (gavage group 10 mg/kg); for half-life: read-out: Intravenous injection T1/2 (converted)
[2] = system: human ovarian cancer OVCAR-3 subcutaneous xenograft tumor; test: In vivo pharmacodynamics, human ovarian cancer OVCAR-3 subcutaneous xenograft tumor BALB/c nude mouse model; parameters: species or system BALB/c nude mice; conditions: oral twice a day, Compound 18 75 mg/kg, Compound 19 25 mg/kg; for Tumor volume (D 21): D 21, mean ± SEM, n = 6
Experimental: Experimental purpose: To evaluate the in vivo efficacy of the compounds of the present disclosure in the human ovarian cancer OVCAR-3 subcutaneous xenograft tumor BALB/c nude mouse model.
Experimental animal: Female BALB/c nude mice, 6-8 weeks old, weighing 18-22 grams; supplier: Beijing Vital River Laboratory Animal Technology Co., Ltd. Experimental methods and steps:
Human ovarian cancer OVCAR-3 (ATCC-HTB-161) cells were cultured in vitro in monolayer, and the culture conditions were RPMI1640 culture medium with 20% fetal bovine serum, 0.01 mg/mL bovine insulin, and 1% double antibody, and the cells were incubated at 37° C., 5% CO2 incubator. Routine digestion with trypsin was performed twice a week for passage. When the cell saturation was 80%-90% and the number reached the requirement, the cells were harvested, counted and inoculated.
0.1 mL (10×10^6 cells) of OVCAR-3 cells were subcutaneously inoculated into the right back of each mouse, and the mice were administrated in groups when the average tumor volume reached 122 mm^3.
Compound 18, compound 19 were formulated as 2 mg/mL clear solutions with 10% dimethyl sulfoxide-20% polyethylene glycol 400-5% Tween 80-65% water.
Tumor diameters were measured with vernier calipers twice a week. The calculation formula of tumor volume was. V=0.5a×b^2, where a and b represented the long and short diameters of the tumor, respectively.
The antitumor efficacy of the compounds was evaluated by TGI (%). TGI (%), reflecting tumor growth inhibition rate. TGI (%/c)=[(1-(average tumor volume at the end of administration of a certain treatment group-average tumor volume at the beginning of administration of this treatment group)/(average tumor volume at the end of treatment in the solvent control group-average tumor volume at the beginning of administration of this solvent control group)]×100%. The relative tumor volume (RTV) was calculated according to the results of tumor measurement, and the calculation formula was RTV=Vt/V0, where V0 was measured at the time of group administration (i.e., D0), and Vt was the average tumor volume at the time of one measurement.
Statistical analysis was performed using SPSS software based on RTV data at the end of the test. The Ttest was used for the comparison between two groups, and the one-way ANOVA was used for the comparison between three or more groups. If the variance was homogeneous (no significant difference in F value), Tukey's method was used for analysis; if the variance was not homogeneous (significant difference in F value), Games-Howell method was used for test. p<0.05 was considered that a significant difference was performed.

[3] = po, gavage 10 mg/kg, read-out: Oral AUC0-last
[4] = intravenous injection 1 mg/kg, read-out: Intravenous Injection AUC0-last

Chain of Chk2 (O96017 whole entry): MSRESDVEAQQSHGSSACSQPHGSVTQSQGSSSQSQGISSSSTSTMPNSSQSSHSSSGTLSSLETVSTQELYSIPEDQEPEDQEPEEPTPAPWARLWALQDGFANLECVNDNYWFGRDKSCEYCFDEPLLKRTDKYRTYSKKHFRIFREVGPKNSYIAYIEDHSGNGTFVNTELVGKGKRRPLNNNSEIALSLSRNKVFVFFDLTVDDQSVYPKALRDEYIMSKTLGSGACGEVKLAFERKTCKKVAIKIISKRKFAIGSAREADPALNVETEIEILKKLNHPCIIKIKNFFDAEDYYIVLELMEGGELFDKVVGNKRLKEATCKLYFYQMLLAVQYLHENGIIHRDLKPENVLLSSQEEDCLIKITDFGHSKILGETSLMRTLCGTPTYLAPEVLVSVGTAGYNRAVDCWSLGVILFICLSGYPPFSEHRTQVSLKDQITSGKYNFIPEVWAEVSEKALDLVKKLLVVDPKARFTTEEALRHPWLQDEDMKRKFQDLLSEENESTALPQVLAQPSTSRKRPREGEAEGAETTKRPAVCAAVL
Chain of Chk1 (O14757 whole entry): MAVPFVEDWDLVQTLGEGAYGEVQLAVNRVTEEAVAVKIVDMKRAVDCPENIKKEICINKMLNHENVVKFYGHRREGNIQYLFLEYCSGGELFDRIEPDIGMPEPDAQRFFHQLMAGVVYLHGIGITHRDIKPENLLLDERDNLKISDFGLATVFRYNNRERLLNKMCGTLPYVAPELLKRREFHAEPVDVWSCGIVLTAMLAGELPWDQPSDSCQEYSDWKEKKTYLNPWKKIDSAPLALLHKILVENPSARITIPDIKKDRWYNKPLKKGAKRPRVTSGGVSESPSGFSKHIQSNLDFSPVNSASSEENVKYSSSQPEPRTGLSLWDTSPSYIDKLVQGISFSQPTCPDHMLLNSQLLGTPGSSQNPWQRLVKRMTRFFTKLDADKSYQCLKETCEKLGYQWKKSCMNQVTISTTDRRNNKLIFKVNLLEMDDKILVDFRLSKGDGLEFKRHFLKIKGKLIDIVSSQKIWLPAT

COc1cc(Cl)ccc1-c1cc(Nc2cnc3ccn(C4CCNCC4)c3n2)n[nH]1 [Compound 14]
IC50 (Chk2; read-out: Chk2 inhibition IC50): 73 nM
IC50 (Chk1): 1 nM

COc1nc(C)ccc1-c1cc(Nc2cnc3ccn(C4CCN(C)CC4)c3n2)n[nH]1 [Compound 18]
bioavailability [1]: 33.2%
AUC(0-t) [1, 3]: 3.63 µM·h
Cmax ([1]; po): 1220 nM
Vd ([1]; intravenous injection 1 mg/kg): 1.9 L/kg
clearance ([1]; intravenous injection 1 mg/kg): 35.3 mL/min/kg
AUC(0-t) [1, 4]: 1.14 µM·h
half-life ([1]; intravenous injection 1 mg/kg): 0.9 h
Tumor volume (D 21) [2]: 180 ± 16 mm^3
Tumor volume (D 21) ([2]; listed as compound 18): 180 mm^3
RTV (D 21) [2]: 1.49
TGI (%) (D 21) [2]: 92.34%
TGI (%) (D 21) ([2]; listed as compound 18): 92.3%

COc1nc(C)ccc1-c1cc(Nc2cnc3c(F)cn(C4CCNCC4)c3n2)n[nH]1 [Compound 2]
IC50 (Chk1): 2 nM

COc1nc(C)ccc1-c1cc(Nc2cnc3ccn(C4CCNCC4)c3n2)n[nH]1 [Compound 1]
IC50 (Chk1): < 1 nM

COc1nc(C)ccc1-c1cc(Nc2cnc3c(F)cn(C4CCN(C)CC4)c3n2)n[nH]1 [Compound 19]
bioavailability [1]: 39.1%
AUC(0-t) [1, 3]: 3.91 µM·h
Cmax ([1]; po): 1220 nM
Vd ([1]; intravenous injection 1 mg/kg): 2.4 L/kg
clearance ([1]; intravenous injection 1 mg/kg): 33.1 mL/min/kg
AUC(0-t) [1, 4]: 1.15 µM·h
half-life ([1]; intravenous injection 1 mg/kg): 1.1 h
Tumor volume (D 21) [2]: 131 mm^3 and 131 ± 12 mm^3
RTV (D 21) [2]: 1.14
TGI (%) (D 21) [2]: 98.8% and 98.76%

COc1cc(C)ccc1-c1cc(Nc2cnc3ccn(C4CCNCC4)c3n2)n[nH]1 [Compound 13]
IC50 (Chk2; read-out: Chk2 inhibition IC50): 84 nM
IC50 (Chk1): 2 nM

COc1ccc(F)cc1-c1cc(Nc2cnc3ccn(C4CCNCC4)c3n2)n[nH]1 [Compound 8]
IC50 (Chk2; read-out: Chk2 inhibition IC50): 188 nM
IC50 (Chk1): 1 nM

[2H]C([2H])([2H])Oc1nc(C)ccc1-c1cc(Nc2cnc3ccn(C4CCN(C([2H])([2H])[2H])CC4)c3n2)n[nH]1 [Compound 22]
IC50 (Chk2): 386 nM
IC50 (Chk1): 1 nM

COc1cc(F)ccc1-c1cc(Nc2cnc3ccn(C4CCNCC4)c3n2)n[nH]1 [Compound 12]
IC50 (Chk2; read-out: Chk2 inhibition IC50): 32 nM
IC50 (Chk1): 1 nM

COc1nc(C(F)(F)F)ccc1-c1cc(Nc2cnc3ccn(C4CCNCC4)c3n2)n[nH]1 [Compound 9]
IC50 (Chk2; read-out: Chk2 inhibition IC50): 1010 nM
IC50 (Chk1): 2 nM

Fc1cccc(OC(F)(F)F)c1-c1cc(Nc2cnc3ccn(C4CCNCC4)c3n2)n[nH]1 [Compound 11]
IC50 (Chk2; read-out: Chk2 inhibition IC50): 99 nM
IC50 (Chk1): 3 nM

COc1nc(C)ccc1-c1cc(Nc2cnc3ccn(C[C@H]4CCNC4)c3n2)n[nH]1 [Compound 5]
IC50 (Chk2; read-out: Chk2 inhibition IC50): 375 nM
IC50 (Chk1): 3 nM

COc1ccccc1-c1cc(Nc2cnc3ccn(C4CCNCC4)c3n2)n[nH]1 [Compound 10]
IC50 (Chk2; read-out: Chk2 inhibition IC50): 62 nM
IC50 (Chk1): 2 nM

[2H]C([2H])([2H])Oc1nc(C)ccc1-c1cc(Nc2cnc3c(F)cn(C4CCN(C)CC4)c3n2)n[nH]1 [Compound 20]
bioavailability [1]: 41.9%
AUC(0-t) [1, 3]: 5.13 µM·h
Cmax ([1]; po): 1260 nM
Vd ([1]; intravenous injection 1 mg/kg): 2.7 L/kg
clearance ([1]; intravenous injection 1 mg/kg): 30.9 mL/min/kg
AUC(0-t) [1, 4]: 1.21 µM·h
half-life ([1]; intravenous injection 1 mg/kg): 1.4 h
IC50 (Chk2): 282 nM
IC50 (Chk1): 2 nM

[2H]C([2H])([2H])N1CCC(n2ccc3ncc(Nc4cc(-c5ccc(C)nc5OC)[nH]n4)nc32)CC1 [Compound 21]
IC50 (Chk2): 362 nM
IC50 (Chk1): 1 nM

[2H]c1cn(C2CCNCC2)c2nc(Nc3cc(-c4ccc(C)nc4OC)[nH]n3)cnc12 [Compound 6]
IC50 (Chk2): 64 nM
IC50 (Chk1): < 1 nM

COc1nc(C)ccc1-c1cc(Nc2cnc3ccn(CC4CNC4)c3n2)n[nH]1 [Compound 4]
IC50 (Chk2; read-out: Chk2 inhibition IC50): 333 nM
IC50 (Chk1): 3 nM
